Broadly, the viability is a read-out of living cells in per cent, often relative to untreated cells.

One data set in a line: in vitro. The conditions noted are these: human, hela cells, % viability.
`CSCCN1CCC(C(=O)c2ccc(F)cc2)CC1` [CBK149145]: the viability at 28.5 h, 10 µM worked out at 89.4%.
`CCNc1nc(NCc2ccccc2)nc(Oc2ccc(=O)[nH]n2)n1` [CBK266591]: the viability at 28.5 h, 10 µM was 104%.
The same measure, in the same setting: the figure for `COc1ccc(C(C)C)cc1-c1cnc2[nH]c(=O)n([C@@H](CO)C(C)C)c2n1` [CBK064495] is 90.3%.
As to `CC(C)C(CNCc1ccn(C)c1)c1ccnn1C` (centres unmarked) [CBK304822], the viability at 28.5 h, 10 µM turned out to be 91%.
In the case of `CN1CCC(N[C@H]2CC(C)(C)[C@@H]3C[C@@](C)(O)CC[C@]23CCC(=O)N2CCOCC2)CC1` [CBK289040], the viability at 28.5 h, 10 µM turned out to be 97.2%.
For the molecule `CCOC(=O)c1ccc(N/C=C(\C#N)c2nc(-c3cc4ccccc4oc3=O)cs2)cc1` [CBK262356], the viability at 28.5 h, 10 µM is 83.1%.
In the case of `c1ccc2cc(CCN3CCC(Oc4cncc(OCCN5CCOCC5)n4)C3)ccc2c1` (centres unmarked) [CBK084503], the viability at 28.5 h, 10 µM worked out at 92.7%.
With `Cc1onc(-c2ccccc2)c1CNC(=O)/C=C/c1ccc2c(c1)OCO2` [CBK144085], the viability at 28.5 h, 10 µM was 95%.
On the same count and under the same terms, the figure for `COc1ccccc1C(NC(=O)C1CCN(C(=O)c2cccc(Cl)c2)CC1)c1ccccn1` (centres unmarked) [CBK059637] is 90.3%; for `CCc1[nH]c2ccc(C(=O)NCCn3ccnc3C)cc2c1C` [CBK282505] it is 96.4%; for `O=C(O)c1cc(-c2ccccn2)nc2ccccc12` [CBK262147K] it is 108%.
On to `Nc1ncnc(NCCc2ccc(S(N)(=O)=O)cc2)c1[N+](=O)[O-]` [CBK267320], for which the viability at 28.5 h, 10 µM was 86.4%.
In the case of `Cc1ccc(NC(=O)NC(=O)C2CCN(S(C)(=O)=O)CC2)cc1` [CBK034863], the viability at 28.5 h, 10 µM was 93.4%.
With `Cc1ccc(OCC(=O)Nc2ccccc2N2CCN(S(C)(=O)=O)CC2)cc1` [CBK268722], the viability at 28.5 h, 10 µM turned out to be 84%.
For `N#Cc1ccc(N2CCCC(N3CCNC3=O)C2)c(C(F)(F)F)c1` (centres unmarked) [CBK305162], the viability at 28.5 h, 10 µM came to 84.9%.
For the molecule `COc1ccc(N2CCN(c3cc(-c4cc(C(F)(F)F)cc(C(F)(F)F)c4)ncn3)CC2)cc1OC` [CBK091020], the viability at 28.5 h, 10 µM amounted to 96.1%.
Take `CN1C(=O)COC[C@@H]1[C@H](O)c1ccc(NC(=O)C2CC2)cc1` [CBK289057]: the viability at 28.5 h, 10 µM was 83.1%.
As to `CC(C)N1CCC(N(C)Cc2nc3ccccc3[nH]2)CC1` [CBK283021], the viability at 28.5 h, 10 µM stood at 105%.
As to `O=S(=O)(NCc1ccccc1)c1cccc2nonc12` [CBK265692], the viability at 28.5 h, 10 µM stood at 90.4%.
In the case of `Cc1ccc(C)c(-c2nc(-c3cccnc3)no2)c1` [CBK288018], the viability at 28.5 h, 10 µM turned out to be 102%.
For the molecule `CN(C)/N=C\c1cccc(O)c1` [CBK015814], the viability at 28.5 h, 10 µM worked out at 95.2%.
For `Oc1cccc(Sc2nccc(C(F)(F)F)n2)c1` [CBK093801], the viability at 28.5 h, 10 µM stood at 96.6%.
Take `CC(C)(C)c1ccc(-c2cc(C3CCNCC3)n[nH]2)cc1` [CBK270240]: the viability at 28.5 h, 10 µM came out at 94%.
Still for that read-out and setting: the figure for `CCN1CCN(C(=O)Cc2ccc(N(C)C)cc2)CC1` [CBK200253] is 82.2%.
In the case of `CN(C)Cc1ccc(C(=O)N2CCc3[nH]c4ccccc4c3C2)cc1` [CBK281847], the viability at 28.5 h, 10 µM amounted to 82.9%.
For `COc1cc(Nc2cccc3c2C(=O)c2ccccc2C3=O)c(OC)cc1C=O` [CBK262677], the viability at 28.5 h, 10 µM was 109%.
With `CC(O)CNCc1ccccc1OCc1ccccc1F` (centres unmarked) [CBK270278C], the viability at 28.5 h, 10 µM worked out at 93.2%.
Consider `CCOC(=O)C1(Cc2cc(-c3ccc(F)cc3)no2)CCNCC1` [CBK284581], for which the viability at 28.5 h, 10 µM is 109%.
Turning to `COc1ccc(C2N(CCC(=O)O)CCOC23CCN(C(=O)c2ccc4ccccc4c2)CC3)cc1` (centres unmarked) [CBK115960], the viability at 28.5 h, 10 µM stood at 102%.
For `COc1ccc(CCNC(=O)C(N)=O)cc1OC` [CBK288457], the viability at 28.5 h, 10 µM was found to be 90.9%.
Turning to `CCOc1ccc(-c2ccnc(N3CCCC(C)(O)C3)n2)cc1C(=O)O` (centres unmarked) [CBK307652], the viability at 28.5 h, 10 µM was found to be 117%.
Take `Cc1nc(C)n(CC2CCCN(CC(=O)NCc3ccccn3)C2)n1` (centres unmarked) [CBK305291]: the viability at 28.5 h, 10 µM was found to be 86.1%.
Consider `CCN1C(=O)CC(n2c(C)nc3ccccc32)C1=O` (centres unmarked) [CBK287847], for which the viability at 28.5 h, 10 µM was determined as 108%.
With `Cc1cc(-n2cccn2)ccc1CN1CCCCC1CN1CCOCC1` (centres unmarked) [CBK307442], the viability at 28.5 h, 10 µM came to 83.2%.
For `Cc1ccc2c(c1)C(NC(=O)C1CC1)CC1(CCOCC1)O2` (centres unmarked) [CBK284879], the viability at 28.5 h, 10 µM came out at 93.4%.
Take `Cn1cc(C2c3ccccc3C(=O)N2CC(=O)O)c2ccccc21` (centres unmarked) [CBK286555]: the viability at 28.5 h, 10 µM was 90.2%.
For the molecule `Clc1ccc(CNc2ncc(-c3ccc(N4CCOCC4)cc3)n3ccnc23)cc1Cl` [CBK091229], the viability at 28.5 h, 10 µM stood at 84.3%.
On to `Cc1nc2ccc(C(=O)NCC3CCCN(C(C)C)C3)cc2[nH]1` (centres unmarked) [CBK282475], for which the viability at 28.5 h, 10 µM came to 90%.
On to `COc1cccc(NC(=O)CCS(=O)(=O)c2cccs2)c1` [CBK071069], for which the viability at 28.5 h, 10 µM turned out to be 100%.
On to `O=C(CSc1nc2sc3c(c2c(=O)n1-c1ccccc1)CCCC3)NCCc1ccccc1` [CBK263280], for which the viability at 28.5 h, 10 µM was 93.7%.
The same measure, in the same setting: the figure for `O=C(O)/C=C/C(=O)NCCc1c[nH]c2ccccc12` [CBK287222] is 93%.
Same read-out and setting: the figure for `O=C(C1CC1)N1CCC(c2[nH]ncc2-c2ccncc2)CC1` [CBK284238] is 87.6%; for `CC(C)C1(C)N=C(c2nc3ccccc3cc2C(=O)O)NC1=O` (centres unmarked) [CBK287057] it is 86.1%.
On the same count and under the same terms, the same measure for `O=c1oc2cc(S(=O)(=O)NCc3ccco3)ccc2c2ccc(S(=O)(=O)NCc3ccco3)cc12` [CBK267177]: 96.5%; for `CCCc1[nH]nc(O)c1CC1CC1` [CBK081129]: 110%; for `O=C(O)CCSc1nc2ccccc2nc1C(F)(F)F` [CBK107866]: 93.7%.
On to `COc1cccc(OCC(=O)NCC(c2cccs2)N2CCOCC2)c1` (centres unmarked) [CBK304664], for which the viability at 28.5 h, 10 µM is 91.6%.
As to `O=C(Nc1ccccc1)Nc1ccc([N+](=O)[O-])cc1` [CBK016975], the viability at 28.5 h, 10 µM is 99.6%.
Regarding `O=C(Nc1nnc(C2=COCCO2)o1)c1cc(Cl)cc(Cl)c1` [CBK287418], the viability at 28.5 h, 10 µM came out at 91.1%.
Turning to `CCOc1cc(/C=C2\SC(=S)N(Cc3cccnc3)C2=O)ccc1OCc1cccc(F)c1` [CBK264615], the viability at 28.5 h, 10 µM is 112%.
Take `O=C(Cn1ncc2cccn2c1=O)OCC(F)(F)F` [CBK283554]: the viability at 28.5 h, 10 µM came out at 93.7%.
As for `CCOC1CCCN(C(=O)c2cccnc2Nc2cccc(F)c2)C1` (centres unmarked) [CBK305307], the viability at 28.5 h, 10 µM amounted to 86.9%.
`O=C(CCCc1c[nH]c2ccccc12)Nc1cccc(C(=O)O)c1` [CBK287175]: the viability at 28.5 h, 10 µM was found to be 104%.
As to `O=C(NCc1ccc(Cl)cc1)c1c(O)c2cc(NS(=O)(=O)c3ccccc3)ccc2[nH]c1=O` [CBK017589], the viability at 28.5 h, 10 µM came out at 94.4%.
Still for that read-out and setting: the figure for `N#Cc1nc(-c2ccccc2F)oc1NCCCN1CCOCC1` [CBK265881] is 107%; for `CCCC(=O)N1CCCCC1c1nn(C)cc1-c1cc(C)no1` (centres unmarked) [CBK283407] it is 106%.
On to `NC(=O)c1cc([N+](=O)[O-])ccc1NCCN1C(=O)c2ccc(C(=O)O)cc2C1=O` [CBK264444], for which the viability at 28.5 h, 10 µM is 105%.
Take `CC(C)(C)OC(=O)N1CCC(Oc2ccccc2C#N)C1` (centres unmarked) [CBK003039]: the viability at 28.5 h, 10 µM amounted to 84.9%.
On the same count and under the same terms, the figure for `Cc1nccn1CC1(O)CCN(C(=O)C(C)c2ccccc2)CC1` (centres unmarked) [CBK285388] is 104%; for `CC(C)(C)c1cc(C(=O)NCc2ccccn2)n(Cc2ccc(Cl)cc2Cl)n1` [CBK107288] it is 101%.
In the case of `CCOc1cccc(C(=O)NC(=S)Nc2nc(C)c(C(=O)OC)s2)c1` [CBK092056], the viability at 28.5 h, 10 µM worked out at 93.6%.
Regarding `CCOc1ccc(-c2ccnc(N3C[C@@H](C)O[C@@H](C)C3)n2)cc1C(=O)O` [CBK306584], the viability at 28.5 h, 10 µM is 92.5%.
Regarding `CC(C)n1cc(C(=O)N2CCC(c3cc4ncccc4[nH]3)CC2)cn1` [CBK283392], the viability at 28.5 h, 10 µM stood at 95.6%.
As to `CN(C)C(CNS(=O)(=O)c1cc2c(cc1Br)NC(=O)CO2)c1ccc(F)cc1` (centres unmarked) [CBK298296], the viability at 28.5 h, 10 µM is 105%.
As to `Cc1cc(OCC(C)C)ccc1C(=O)C1=C(O)C(=O)N(Cc2cccnc2)C1c1cccnc1` (centres unmarked) [CBK264883], the viability at 28.5 h, 10 µM is 97.6%.
As to `Cc1csc(Sc2nc3ccccc3nc2C(F)(F)F)n1` [CBK093775], the viability at 28.5 h, 10 µM was 94.9%.
The same measure, in the same setting: the figure for `N#Cc1c(SCC(=O)O)nc(-c2cccs2)c2c1CCCC2` [CBK269858] is 103%; for `Cc1cccc(C2(O)CCN(CC(O)c3ccc4c(c3)CCC4)CC2)c1` (centres unmarked) [CBK286330] it is 95.3%.
With `O=C(Nc1cccc(C(F)(F)F)c1)c1c(O)c2ccccc2[nH]c1=O` [CBK159985], the viability at 28.5 h, 10 µM came out at 93.2%.
Take `COc1nccnc1/C=C/c1ccccc1` [CBK106876]: the viability at 28.5 h, 10 µM stood at 115%.
As for `O=C(COc1cccc([N+](=O)[O-])c1)Nc1cc(C(=O)O)cc(C(=O)O)c1` [CBK263604], the viability at 28.5 h, 10 µM was determined as 114%.
Regarding `CCn1c2ccccc2c2cc(CN3CCN(Cc4cc(OC)cc(OC)c4)CC3)ccc21` [CBK263164], the viability at 28.5 h, 10 µM came to 95.9%.
For the molecule `CSc1nc(N)c2c3c(sc2n1)CN(C)CC3` [CBK018303], the viability at 28.5 h, 10 µM is 122%.
Take `Nc1nc(N)c2cc(C(F)(F)F)ccc2n1` [CBK025934]: the viability at 28.5 h, 10 µM turned out to be 66.4%.
Consider `COc1ccc(-c2n[nH]c(N)n2)cc1` [CBK028843], for which the viability at 28.5 h, 10 µM came to 116%.
For the molecule `Cc1ccc(Sc2nccn3c(=O)[nH]nc23)c(C)c1` [CBK288055], the viability at 28.5 h, 10 µM was 101%.

Staying with this data set, now noted: human, hela cells, % viability, bulk resorufin, single well.
In the case of `Cc1ccc(Cn2nc(C(=O)NCc3ccncc3)c3ccccc32)cc1` [CBK047832], the viability at 28.5 h, 10 µM was determined as 82.7%.
`CCOC(=O)C1CCN(/C=C2/C(=O)NC(=S)N(c3ccccc3F)C2=O)CC1` [CBK265142]: the viability at 28.5 h, 10 µM was 102%.
For `O=C1NC(=O)C(=CNCCc2c[nH]c3ccccc23)C(=O)N1` [CBK261635], the viability at 28.5 h, 10 µM is 93.2%.
For `CC(=O)[C@H]1C[C@@H](CC(=O)N2CCC(C#N)(c3ccccc3)CC2)C1(C)C` [CBK091393], the viability at 28.5 h, 10 µM came out at 91.5%.

Values taken from publication PMC12040169 (PLOS Biology, 2025).
